Where no end group is shown, it is not given here.
Assays:
[1] = tested on: HUT78 Sézary cells; assay: Cell viability, MTT assay, HUT78 cells (with or without cell death inhibitors); assay type: cell-based; settings: 20 h; for effect of pan-caspase inhibitor zVAD-fmk on peptide-induced cytotoxicity: increasing peptide concentrations, 50 μM zVAD-fmk, MTT, n = 3
Method: (§3) Cells survival was assessed with the CellTiter 96® Aqueous One Solution Cell Proliferation Assay kit (Promega, Madison, WI, USA).

[2] = tested on: non-malignant CD4+ T-cells, CD3+CD4+Vβ− cells; assay: Ex vivo cell death in Sézary patients' PBMC, 7-AAD flow cytometry, non-malignant CD4+ T-cells; assay type: cell-based, human; settings: increasing concentrations, 4 h, 37 °C, PBMC of three patients
Excerpt: (§1) SS diagnosis was established on recognized international clinical, histological, and biological criteria. Blood from SS patients with more than 90% of malignant CD4^+ T cells (identified by their TCR-Vβ rearrangement) was collected for the present study, which was approved by the institutional ethics committee (Saint Louis Hospital, Paris. Protocol no. 2011-oct.12735). Peripheral blood mononuclear cells (PBMC) were isolated from heparinized venous blood by density gradient centrifugation over lymphocytes separating medium (LSM; PAA Laboratories, Les Mureaux, France). The Sézary cell line HUT78 was amplified as previously described and cultured in RPMI 1640 supplemented with 2 mM L-glutamine, 1% penicillin-streptomycin (Invitrogen) and 10% heat-inactivated fetal calf serum (Life Technologies). All other cell lines were cultured in DMEM supplemented with 2 mM L-glutamine, 1% penicillin-streptomycin (Invitrogen) and 10% heat-inactivated fetal calf serum (Life Technologies).
(§2) PBMC exposed or not to RT33 or RT33 DR were processed for flow cytometry to assess cell death. Cells were labelled with a mix of anti-TCR-Vβ-FITC, -CD3-PE, and -CD4-PE-Cy7 mAbs (Beckman Coulter). Detection of apoptotic cells was performed using 7 AAD (BD Biosciences). Cells were analyzed on a CytoFlex cytometer (Beckman Coulter) and data treated with FlowJo software.

[3] = tested on: non T-cells, CD3− cells; assay: Ex vivo cell death in Sézary patients' PBMC, 7-AAD flow cytometry, non T-cells; assay type: cell-based, human; settings: increasing concentrations, 4 h, 37 °C, PBMC of three patients
Excerpt: as §1, §2

[4] = tested on: normal (HaCat, MRC-5) cells; assay: Cell viability, MTT assay, normal cells; assay type: cell-based; settings: increasing concentrations, 20 h, n = 3
Method: as §3

[5] = tested on: HUT78 Sézary cells xenograft; assay: Sub-cutaneous xenograft mouse model for the Sézary syndrome; assay type: in vivo, NOD/SCID gamma (NSG) mice; settings: 5 mg/kg daily i.p.
Excerpt: Animal experiments were approved by The University Board Ethics Committee for Experimental Animal Studies (#2303.01). Xenograft tumors were obtained by subcutaneous injection of 10^6 HUT78 cells in the right flank of 8-week-old female NOD-SCID-gamma (NSG) mice, bred and housed under pathogen-free conditions at our animal facility (IUH, Saint Louis Hospital, Paris, France). Treatment started after randomization when tumors were visible and consisted of daily intraperitoneal (i.p.) injection of normal saline or RT33 or RT33 DR in normal saline (n = 5 per group). Tumor volume was measured every other day and calculated as: long axis × short axis^2 × 0.5. Animals were euthanized after 21 days of treatment or when tumor size reached the ethical end point and visceral organs were excised for a gross pathological examination. Tumors were fixed in 4% neutral buffered formalin and embedded in paraffin. Sections (4 µm) were stained with hematoxylin-eosin (H&E) and subjected to microscopic analysis and image recording. Histological analysis was performed at the HistIM facility of Cochin Institute (Paris, France). Slides were imaged using a Lamina multilabel slide scanner (Perkin Elmer).

Row | Substance | cell viability, AAC-11 portion alone ([1]; 20 µM, MTT assay, n = 3 (Supplementary Figure S4)) | cell death / viability of non-malignant CD4+ T-cells (7-AAD+) [2] | cell death / viability of non T-cells (7-AAD+) [3] | cell viability of normal cells [4] | effect of pan-caspase inhibitor zVAD-fmk on peptide-induced cytotoxicity [1] | clinical symptoms during the experimental period [5]
1 | AAC-11 specific portion: peptide comprising AAC-11 residues 377 to 399, without CPP (LQYFARGLQVYIRQLRLALQGKT; UniProt Q9BZZ5 377-399, looked up, fragment) [reference compound] | nor the AAC-11 specific portion alone (Supplementary Figure S4) decreased cell viability |  |  |  |  | 
2 | RSRSRDRRRK [hAP10] |  | did not induce cell death | did not induce cell death |  |  | 
3 | RSRSRDRRRKLQYFARGLQVYIRQLRLALQGKT [RT33] |  | neither peptide decreased cell viability | neither peptide decreased cell viability | sparing the normal cells tested | did not block | No obvious clinical symptoms
4 | RSRSRRRRRK [hAP10DR] |  | did not induce cell death | did not induce cell death |  |  | 
5 | RSRSRRRRRKLQYFARGLQVYIRQLRLALQGKT [RT33DR] |  | neither peptide decreased cell viability | neither peptide decreased cell viability | sparing the normal cells tested | did not block | No obvious clinical symptoms

From publication PMC7408964, “Efficient Therapeutic Delivery by a Novel Cell-Penetrating Peptide Derived from Acinus” (Cancers, 2020)
